Measured values from patent publication US10953027B2, “Active agents and methods of their use for the treatment of metabolic disorders and nonalcoholic fatty liver disease” (Flagship Pioneering Innovations V, Inc., priority 2018, dated 2021).

Legend:
[1] = Assay 1. Stability in Simulated Gastric Fluid (SGF); assay type: in vitro ADME; conditions: 1 μM, 37° C., SGF pH 1.6 with pepsin
Protocol: Assay 1. Stability of acylated active agents in Simulated Gastric Fluid (SGF). This assay was used to assess the stability of an acylated active agent in a stomach.
Medium was prepared by dissolving 2 g of sodium chloride in 0.6 L of ultrapure water (MilliQ®, Millipore Sigma, Darmstadt, Germany). The pH was adjusted to 1.6 with 1N hydrochloric acid, and the volume was then adjusted to 1 L with purified water.
60 mg FaSSIF powder (Biorelevant™, London, UK) were dissolved in 500 mL buffer (above). Pepsin was added (0.1 mg/mL) (Millipore Sigma, Darmstadt, Germany), and the solution was stirred. The resulting SGF media were used fresh for each experiment.
Test compounds were dissolved in DMSO stock to 1 mM. An aliquot of the DMSO stock solution was removed and diluted in the SGF Media in 15 mL falcon tubes to generate a compound concentration of 1 μM. A 1 mL aliquot was immediately removed and diluted once with 1 volume of acetonitrile for T0 timepoint. The mixture was sealed and mixed at 37° C. in an incubator. Aliquots (1 mL) were removed at regular intervals and immediately quenched by the addition of 1 volume of acetonitrile. The resulting samples were analyzed by LC/MS to determine degradation rates in SGF.

[2] = Assay 2. Stability in Simulated Intestinal Fluid (SIF); assay type: in vitro ADME; conditions: 1 μM, 37° C., SIF pH 6.7 with pancreatin
Protocol: Assay 2. Stability of acylated active agents in Simulated Intestinal Fluid (SIF). This assay was used to assess the stability of an acylated active agent in a small intestine.
Phosphate buffer was prepared by dissolving 0.42 g of sodium hydroxide pellets and 3.95 g of monobasic sodium phosphate monohydrate and 6.19 g of sodium chloride in ultrapure water (MilliQ®, Millipore Sigma, Darmstadt, Germany). The pH was adjusted to 6.7 using aq. HCl and aq. NaOH, as necessary, and the solution was diluted with ultrapure water to produce 1 L of the pH 6.7 buffer.
112 mg FaSSIF powder (Biorelevant™, London, UK) was dissolved in 50 mL of the pH 6.7 buffer. 2 to 3 mL of the resulting solution were then added to 500 mg pancreatin (Millipore Sigma, Darmstadt, Germany). The resulting mixture was agitated by finger tapping the vessel containing the mixture until milky suspension formed. At this time, the remainder of the 50 mL FaSSiF/pH 6.7 buffer solution was added. The resulting suspension was flipped upside down 10 times to produce SIF, which was used fresh.
Test compounds were dissolved in DMSO stock to 1 mM. An aliquot of the DMSO stock solution was removed and diluted in the SIF media in 15 mL falcon tubes to produce a mixture with a tested compound concentration of 1 μM. A 1 mL aliquot was immediately removed and diluted once with 1 volume of acetonitrile for T0 timepoint. The mixture was sealed and agitated at 37° C. in an incubator. Aliquots (1 mL) were removed at regular intervals and immediately quenched by the addition of 1 volume of acetonitrile. The resulting samples were analyzed by LC/MS to determine degradation rates.

SMILES: CC(=O)Oc1ccc(-c2oc3cc(OC(C)=O)cc(OC(C)=O)c3c(=O)c2OC(C)=O)cc1 [Compound 20, [4-(3,5,7-triacetoxy-4-oxo-chromen-2-yl)phenyl] acetate]
- Assay 1 (SGF) (% Remaining @ 1 hours) [1]: C (C: >75% of the tested compound remaining)
- Assay 2 (SIF) (% @ Remaining 4 hours) [2]: A (A: <25% of the tested compound remaining)

SMILES: CC(=O)Oc1ccc([C@@H]2CC(=O)c3c(OC(C)=O)cc(OC(C)=O)cc3O2)cc1 [Compound 21, (S)-2-(4-acetoxyphenyl)-4-oxochromane-5,7-diyl Diacetate]
- Assay 1 (SGF) (% Remaining @ 1 hours) [1]: C (C: >75% of the tested compound remaining)
- Assay 2 (SIF) (% @ Remaining 4 hours) [2]: A (A: <25% of the tested compound remaining)

SMILES: CCCC(=O)Oc1ccc([C@@H]2CC(=O)c3c(OC(=O)CCC)cc(OC(=O)CCC)cc3O2)cc1 [Compound 22, (S)-2-(4-(butyryloxy)phenyl)-4-oxochromane-5,7-diyl dibutyrate]
- Assay 1 (SGF) (% Remaining @ 1 hours) [1]: B (B: 25-75% of the tested compound remaining)
- Assay 2 (SIF) (% @ Remaining 4 hours) [2]: A (A: <25% of the tested compound remaining)

SMILES: CC(=O)Oc1cc(OC(C)=O)c2c(=O)c(OC(C)=O)c(-c3cc(OC(C)=O)c(OC(C)=O)c(OC(C)=O)c3)oc2c1 [Compound 23, [3,5-diacetoxy-4-oxo-2-(3,4,5-triacetoxyphenyl)chromen-7-yl] acetate]
- Assay 1 (SGF) (% Remaining @ 1 hours) [1]: C (C: >75% of the tested compound remaining)
- Assay 2 (SIF) (% @ Remaining 4 hours) [2]: A (A: <25% of the tested compound remaining)

SMILES: CC(=O)OCC[C@@H](C)OC(=O)Oc1ccc(/C=C/c2cc(OC(=O)O[C@H](C)CCOC(C)=O)cc(OC(=O)O[C@H](C)CCOC(C)=O)c2)cc1 [Compound 24, [(3R)-3-[4-[(E)-2-[3,5-bis[[(1R)-3-acetoxy-1-methyl-propoxy]carbonyloxy]phenyl]vinyl]phenoxy]carbonyloxybutyl] acetate]
- Assay 1 (SGF) (% Remaining @ 1 hours) [1]: C (C: >75% of the tested compound remaining)
- Assay 2 (SIF) (% @ Remaining 4 hours) [2]: A (A: <25% of the tested compound remaining)

SMILES: CCCC(=O)Oc1ccc(N)cc1C(=O)O.Cl [Compound 31, 5-amino-2-butanoyloxy-benzoic Acid Hydrochloride]
- Assay 1 (SGF) (% Remaining @ 1 hours) [1]: C (C: >75% of the tested compound remaining)
- Assay 2 (SIF) (% @ Remaining 4 hours) [2]: C (C: >75% of the tested compound remaining)

SMILES: CCCC(=O)Oc1ccc(/N=N/c2ccc(OC(=O)CCC)c(C(=O)O)c2)cc1C(=O)O [Compound 32, 2-butanoyloxy-5-[(E)-(4-butanoyloxy-3-carboxy-phenyl)azo]benzoic Acid]
- Assay 1 (SGF) (% Remaining @ 1 hours) [1]: A (A: <25% of the tested compound remaining)
- Assay 2 (SIF) (% @ Remaining 4 hours) [2]: A (A: <25% of the tested compound remaining)

SMILES: CCCC(=O)O[C@@H]1[C@@H](OC(=O)CCC)[C@@H](Oc2ccc(N)cc2C(=O)O)OC[C@H]1OC(=O)CCC [Compound 33, 5-amino-2-[(2R,3R,4S,5R)-3,4,5-tri(butanoyloxy)tetrahydropyran-2-yl]oxy-benzoic Acid]
- Assay 1 (SGF) (% Remaining @ 1 hours) [1]: C (C: >75% of the tested compound remaining)
- Assay 2 (SIF) (% @ Remaining 4 hours) [2]: C (C: >75% of the tested compound remaining)

SMILES: CCCC(=O)O[C@@H]1[C@@H](OC(=O)CCC)[C@H](Oc2ccc(N)cc2C(=O)O)OC[C@H]1OC(=O)CCC [Compound 34, 5-amino-2-[(2S,3R,4S,5R)-3,4,5-tri(butanoyloxy)tetrahydropyran-2-yl]oxy-benzoic Acid]
- Assay 1 (SGF) (% Remaining @ 1 hours) [1]: C (C: >75% of the tested compound remaining)
- Assay 2 (SIF) (% @ Remaining 4 hours) [2]: C (C: >75% of the tested compound remaining)

SMILES: C[C@@H](O)CCOC(=O)c1cc(N)ccc1O [Compound 39, [(3R)-3-hydroxybutyl] 5-amino-2-hydroxy-benzoate]
- Assay 1 (SGF) (% Remaining @ 1 hours) [1]: C (C: >75% of the tested compound remaining)
- Assay 2 (SIF) (% @ Remaining 4 hours) [2]: C (C: >75% of the tested compound remaining)

SMILES: CCCC(=O)Nc1ccc(O)c(C(=O)O)c1 [Compound 40, 5-(butanoylamino)-2-hydroxy-benzoic Acid]
- Assay 1 (SGF) (% Remaining @ 1 hours) [1]: C (C: >75% of the tested compound remaining)
- Assay 2 (SIF) (% @ Remaining 4 hours) [2]: C (C: >75% of the tested compound remaining)

SMILES: CCCC(=O)O[C@H]1[C@@H](Oc2ccc(N)cc2C(=O)O)OC[C@@H](OC(=O)CCC)[C@H]1OC(=O)CCC [Compound 41, 5-amino-2-(((2R,3R,4R,5R)-3,4,5-tris(butyryloxy)tetrahydro-2H-pyran-2-yl)oxy)benzoic Acid]
- Assay 1 (SGF) (% Remaining @ 1 hours) [1]: C (C: >75% of the tested compound remaining)
- Assay 2 (SIF) (% @ Remaining 4 hours) [2]: C (C: >75% of the tested compound remaining)

SMILES: CC(=O)Oc1cc(C(=O)O)cc(OC(C)=O)c1OC(C)=O [Compound 44, 3,4,5-triacetoxybenzoic Acid]
- Assay 1 (SGF) (% Remaining @ 1 hours) [1]: C (C: >75% of the tested compound remaining)
- Assay 2 (SIF) (% @ Remaining 4 hours) [2]: B (B: 25-75% of the tested compound remaining)

SMILES: CC(=O)OC[C@H]1O[C@@H](Oc2c(C)c(C)c3c(c2C)CC[C@@](C)(CCC[C@H](C)CCC[C@H](C)CCCC(C)C)O3)[C@H](OC(C)=O)[C@@H](OC(C)=O)[C@@H]1OC(C)=O [Compound 63, [(2R,3R,4S,5R,6S)-3,4,5-triacetoxy-6-[(2R)-2,5,7,8-tetramethyl-2-[(4R,8R)-4,8,12-trimethyltridecyl]chroman-6-yl]oxy-tetrahydropyran-2-yl]methyl Acetate]
- Assay 1 (SGF) (% Remaining @ 1 hours) [1]: C (C: >75% of the tested compound remaining)
- Assay 2 (SIF) (% @ Remaining 4 hours) [2]: C (C: >75% of the tested compound remaining)

SMILES: C[C@@H]1CCOC(C)(C(=O)Oc2ccc(/C=C/c3cc(OC(=O)C4(C)OCC[C@@H](C)O4)cc(OC(=O)C4(C)OCC[C@@H](C)O4)c3)cc2)O1 (stereo partly drawn) [Compound 65, [4-[(E)-2-[3,5-bis[[(4R)-2,4-dimethyl-1,3-dioxane-2-carbonyl]oxy]phenyl]vinyl]phenyl] (4R)-2,4-dimethyl-1,3-dioxane-2-carboxylate]
- Assay 1 (SGF) (% Remaining @ 1 hours) [1]: C (C: >75% of the tested compound remaining)
- Assay 2 (SIF) (% @ Remaining 4 hours) [2]: C (C: >75% of the tested compound remaining)

SMILES: Cc1c(C)c2c(c(C)c1OC(=O)C1OCC[C@@H](C)O1)CC[C@@](C)(CCC[C@H](C)CCC[C@H](C)CCCC(C)C)O2 (stereo partly drawn) [Compound 66, [(2R)-2,5,7,8-tetramethyl-2-[(4R,8R)-4,8,12-trimethyltridecyl]chroman-6-yl] (4R)-4-methyl-1,3-dioxane-2-carboxylate]
- Assay 1 (SGF) (% Remaining @ 1 hours) [1]: C (C: >75% of the tested compound remaining)
- Assay 2 (SIF) (% @ Remaining 4 hours) [2]: A (A: <25% of the tested compound remaining)

SMILES: C=C1CC[C@H](OC(=O)[C@H](OC(=O)CCC)[C@@H](OC(=O)CCC)[C@H](OC(=O)CCC)[C@@H](COC(=O)CCC)OC(=O)CCC)C/C1=C/C=C1\CCC[C@]2(C)[C@@H]([C@H](C)CCCC(C)C)CC[C@@H]12 [Compound 67, [(1 S,3Z)-3-[(2E)-2-[(1R,3aS,7aR)-1-[(1R)-1,5-dimethylhexyl]-7a-methyl-2,3,3a,5,6,7-hexahydro-1H-inden-4-ylidene]ethylidene]-4-methylene-cyclohexyl] (2R,3S,4R,5R)-2,3,4,5,6-penta(butanoyloxy)hexanoate]
- Assay 1 (SGF) (% Remaining @ 1 hours) [1]: B (B: 25-75% of the tested compound remaining)
- Assay 2 (SIF) (% @ Remaining 4 hours) [2]: A (A: <25% of the tested compound remaining)
